Experimental data published in patent publication US20230257444A1, “FUSION PROTEIN AND COMBINATIONS THEREOF” (Agency for Science, Technology and Research, priority 2020, published 2023).

Assays:
[1] = system: SC5314 Candida albicans; test: In vitro co-culture CFU assay of human primary immune cells against Candida albicans; assay type: cell-based; conditions: 1 hr; for fungicidal activity (CFU): absence or presence of hDectin1-Fc; for reduction in CFU: between hDectin1-Fc 0 μg/ml and 1000 µg/ml, 37° C.
Method: Macrophage assay: Human peripheral blood CD14+ monocytes were cultured at 1×10^6 cells/mL in 5 mL of ImmunoCult™-SF Macrophage Differentiation Medium with Human Recombinant M-CSF at 50 ng/ml in a T-25 flask at 37° C. in a 5% CO2 incubator. On Day 4, 2.5 mL of fresh ImmunoCult™-SF Macrophage Differentiation Medium was added to the flask. On Day 6, M1 activation was initiated with the addition of 50 ng/mL IFN-γ. On Day 8, the macrophages were treated with ACCUTASE and scrapped from the flask. The cells were centrifuged and resuspended in RPMI medium with 10% FBS and seeded into Eppendorf 96 well plates at 10^5 cells/well.
NK cell assay: Human Peripheral Blood CD56+NK Cells 1×10^6 cells/mL in 5 mL of ImmunoCult™-XF T Cell Expansion Medium with Human Recombinant IL-2 at 500 IU/ml in a T-25 flask at 37° C. in a 5% CO2 incubator for 7 days. Additional fresh media was added on day 4. The cells were centrifuged and resuspended in RPMI medium with 10% FBS and seeded into Eppendorf 96 well plates at 10^5 cells/well.
Monocyte assay: Human peripheral blood CD14+ Monocytes were cultured at 1×10^6 cells/mL in 5 mL of ImmunoCult™-SF Macrophage Differentiation Medium with Human Recombinant M-CSF at 10 ng/ml in a T-25 flask at 37° C. in a 5% CO2 incubator for 4 days. The cells were centrifuged and resuspended in RPMI medium with 10% FBS and seeded into Eppendorf 96 well plates at 10^5 cells/well.
Neutrophil assay: Human peripheral neutrophils were extracted from Human […] using EasySep™ Direct Human Neutrophil Isolation Kit as per manufacturer's protocol. The isolated neutrophils were centrifuged and resuspended in RPMI medium with 10% FBS and G-CSF and seeded into Eppendorf 96 well plates at 10^5 cells/well.
The co-culture CFU assay involves the addition of 10^5 cells/well of SC5314 Candida albicans cells to wells containing 10^5 cells/well of primary immune cells with final concentration of hDectin1-Fc at […] in a 96 well plate. The assay was incubated for 1 hr at 37° C. in a 5% CO2 atmosphere incubator. Samples were taken from each well at the end of the incubation and diluted accordingly before plating on YPD agar plates. The colonies were counted the following day. Each assay was done thrice and the average taken.
To evaluate the capability of the hDectin1-Fc fusion protein in enhancing immune cell anti-candida function, 10^5 human primary immune cells were co-cultured with 10^5 Candida albicans in a 1 hr long assay incubated at 37° C. with varying concentrations of hDectin1-Fc from […]. The surviving Candida cells were diluted and plated and the colony forming units (CFU) used as a measure of fungicidal activity (FIG. 12). […]

[2] = system: SC5314 Candida albicans; test: In vitro combination therapy checkerboard dilution assay (Amphotericin B & hDectin1-Fc) with human primary macrophages; assay type: cell-based; conditions: between 0 μg/ml and 100 µg/ml hDectin1-Fc, 24 hours
Method: Human peripheral blood CD14+ monocytes were cultured at 1×10^6 cells/mL in 5 mL of ImmunoCult™-SF Macrophage Differentiation Medium with Human Recombinant M-CSF at 50 ng/ml in a T-25 flask at 37° C. in a 5% CO2 incubator. On Day 4, 2.5 mL of fresh ImmunoCult™-SF Macrophage Differentiation Medium was added to the flask. On Day 6, M1 activation was initiated with the addition of 50 ng/mL IFN-γ. On Day 8, the macrophages were treated with ACCUTASE and scrapped from the flask. The cells were centrifuged and resuspended in RPMI medium with 10% FBS and seeded into 96 well plates at 10^5 cells/well. The co-culture assay involves the addition of 10^5 cells/well of SC5314 Candida albicans cells to wells containing 10^5 cells/well of human primary macrophages cells with final concentration of hDectin1-Fc at 0, 1, 10 or 100 g/ml and varying concentration of Amphotericin B in a checkerboard dilution assay format in a 96 well plate. The assay was incubated for 24 hr at 37° C. in a 5% CO2 atmosphere incubator and the MIC and MFC determined visual using a Nikon Eclipse Ti-E inverted microscope.
10′ Candida albicans cells and 10′ human primary macropahges were seeded per well in a checkerboard dilution assay of Amphotericin B with the respective concentration of hDectin1-Fc (0, 10, 100 μg/ml) and incubated for 24 hours at 37° C.

[3] = target: T1, FcγRIIb (Homo sapiens, UniProt P31994); test: Surface plasmon resonance: binding to immobilised Fc receptor; conditions: SPR, steady state
T1 construct: soluble ectodomains of FcR from R&D Systems; purchased R&D Systems 1875-CD-050
T1 sequence (P31994 43-217 limits assumed): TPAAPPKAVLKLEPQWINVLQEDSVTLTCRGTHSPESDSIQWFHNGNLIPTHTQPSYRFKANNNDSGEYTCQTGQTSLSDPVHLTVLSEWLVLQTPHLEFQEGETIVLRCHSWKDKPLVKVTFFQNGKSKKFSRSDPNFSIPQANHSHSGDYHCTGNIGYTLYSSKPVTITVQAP
Source text: A BIAcore T200 SPR Biosensors (GE Healthcare) was used to assay the interaction of soluble ectodomains of FcR from R&D Systems with hDectin1-Fc and IgG1. Amine coupling via N-hydroxysuccinimide ester was formed on a CM5 sensor chip surface according to a procedure recommended by the manufacturer. Ectodomains were immobilized at acidic pH, resulting in the following densities: FcγRI (#1257-FC-050): 1919 RU, FcγRIIa (#1330-CD-050/CF):1766 RU, FcγRIIb/c (#1875-CD-050): 1972 RU, FcγRIIIa (#4325-FC-050): 2275 RU, FcγRIIIb (#1597-FC-050/CF): 2393 RU, FcRn (#8639-FC-050): 2836. A range of hDectin1-Fc/IgG1 concentrations was injected into flow cells at a flow rate of […], with a contact and dissociation time of 300 and 900 seconds, respectively. After each assay cycle, the sensor chip surface was regenerated using 10 mM NaOH. Binding response was recorded as resonance units (RU; 1 RU=1 pg/mm^2) continuously, with background binding automatically subtracted. Due to the polyclonal nature of the hDectin1-Fc/IgG1 recombinant proteins used, kinetic constants (kon, koff, t1/2) were not determined, and the KD was calculated by analyzing the concentration-dependence of the steady-state signal reached at the end of the injection using BIA evaluation version 3 software (GE Healthcare) and Scrubber version 2 software (BioLogic Software, Campbell, Australia). The steady-state response was plotted against the concentration of hDectin1-Fc/IgG1 and fitted using Origin software.
Antibody mediated immune activation depends on the strength of binding and affinity of the Fc to the various Fcγ receptors. Binding to the neonatal receptor FcRn is also important for the half-life in serum and the transcytosis across endothelial cells into various tissues. Surface plasmon resonance was used to evaluate the binding of the Immunoglobulin G's Fc of hDectin1-Fc to the various Fc receptors (FcγRI, FcγRIIa, FcγRIIb, FcγRIIIa, FcγRIIIb and FcRn) present on immune cells by flowing free hDectin1-Fc of various concentrations over immobilised Fc receptors (FIG. 11A-F). […] High affinity FcγRI(CD64) is expressed on macrophages, monocytes and neutrophils and low affinity FcγRIIIa (CD16a) is expressed on natural killer cells, monocytes, macrophages and neutrophils. Both CD64 and CD16a activating receptors have Immunoreceptor Tyrosine based Activation Motif (ITAM) signalling domain. FcγRI strongly binds IgG opsonized targets to trigger phagocytosis and a proinflammatory response of TNFα, IFNγ and production of oxidative species. FcγRIIIa likewise activate degranulation, phagocytosis, and oxidative burst.

hDectin1-Fc: soluble dimeric fusion protein: human Dectin-1 receptor polypeptide (aa 73-247) fused to human IgG1 Fc via hinge; SEQ ID NO: 5
fungicidal activity (CFU) ([1]; human NK cells): did not demonstrate any appreciable fungicidal activity | fungicidal activity (CFU) ([1]; human monocytes): did not demonstrate any appreciable fungicidal activity | reduction in CFU ([1]; human primary macrophages): ~50% | reduction in CFU ([1]; human primary neutrophils): ~50% | reduction in MFC of Amphotericin B [2]: ~45% | binding to FcγRIIb (Binding Constant KD screen) [3]: bind to FcγRI, FcγRIIIa and FcRn only
